Experimental data reported in patent US20260053958A1, “HALOGENATED SOMATOSTATIN ANALOGS WITH MULTIPLE SOMATOSTATIN RECEPTOR SUBTYPE SELECTIVITY” (GRAFTON THERAPEUTICS SÀRL, priority 2022, published 2026).
Numbered stars: 1 amine (or outer) side, 2 acyl side, 3 side chain; on linkers, the order of the positions; unused ones are H or OH. Bridge positions count the residues as written; N and C are the ends. Square brackets hold non-standard residues; d marks the D form. Peptide text beside a SMILES is read from it. ξ: configuration not given here. Tyr(3-Br) = N[C@@H](Cc1ccc(O)c(Br)c1)C(=O)O; Tyr(3-Cl) = N[C@@H](Cc1ccc(O)c(Cl)c1)C(=O)O; X2 = Nc1ccc(C[C@@H](N[*:1])C(=O)[*:2])cc1Br; X3 = Nc1ccc(C[C@@H](N[*:1])C(=O)[*:2])cc1Cl; X1 = Nc1ccc(C[C@@H](N[*:1])C(=O)[*:2])cc1F; Tyr(3-F) = N[C@@H](Cc1ccc(O)c(F)c1)C(=O)O; Thr(3ξ) = CC(O)[C@H](N)C(=O)O

What was measured:
NT-3 cells [1] = assay: Inhibition of insulin release from NT-3 cells (ELISA); format: cell-based, human; conditions: 5 days, in comparison to untreated NT-3 cells
Protocol: For the study, 24-well plates were coated with 1 mg/ml of human placenta-derived type IV collagen in 950 μL of PBS) and fully dried. NT3 cells were seeded at a density of 20,000 cells/well in complete culture medium (0.5 ml), including growth factors and incubated overnight at 37° C., with 5% CO2.
All drugs were administered at 5 nM and 10 nM and biological duplicates were studied. The treatment exposure period was 5 days. Untreated cell controls were also studied. After 5 days, the supernatants were collected and deposited into 1.5 ml test tubes that were then centrifuged at 13,400 rpm for 5 minutes to remove any cell residue. The samples were stored at −80° C. until the time of analysis.
Secreted insulin levels in the supernatant were studied using a Sandwich-ELISA method (Elabscience® Human Insulin ELISA Kit #E-EL-H2665) according to the manufacturer's instructions. A micro-ELISA plate was pre-coated with an antibody specific to human insulin. Samples or Standards were added to the micro-ELISA plate wells and combined with the specific antibody. Then a biotinylated detection antibody specific for human insulin and Avidin-Horseradish Peroxidase (HRP) conjugate were added successively to each micro plate well, incubated and then washed. Substrate solution was added to each well. Only those wells that contain human insulin, biotinylated detection antibody and Avidin-HRP conjugate appear blue in color. The enzyme-substrate reaction was terminated by the addition of stop solution. The optical density (OD) was measured spectrophotometrically at a wavelength of 450 nm±2 nm, and the concentration of human insulin was then derived from the standard curve.

AtT-20 cells = assay: Inhibition of ACTH release from AtT-20 cells (ELISA); format: cell-based, mouse; conditions: 72 hours, in comparison to untreated AtT-20 cells
Protocol: AtT-20 cells were seeded in 24-well plates (20,000 cells/well) in complete culture medium and incubated overnight at standard incubator conditions (37° C., 5% CO2) to promote adhesion.
(§1) All compounds were studied at concentrations of 5 nM and 10 nM; untreated cell controls were also studied. A biological duplicate was reproduced for each concentration of each drug. The treatment exposure period was 72 h. At the 72 h time-point, cell supernatant was collected and deposited into 1.5 mL test tubes that were then centrifuged at 13,400 rpm for 5 minutes to remove any cell residues. The samples were stored at −80° C. until the time of analysis.
ACTH levels were quantified using a Sandwich-ELISA technique ((Abcam Mouse/Rat ACTH ELISA Kit #ab263880) according to the manufacturer's instructions. Samples and standards were added individually to the wells, followed by the antibody mix. After incubation, the wells were washed to remove unbound material, and development solution was added, which was catalysed, and the reaction was subsequently stopped. The signal was generated proportionally to the amount of bound analyte and the intensity was measured at 450 nm. Results are shown in Table 8 and in FIG. 4A-4E.

SST2 [2] = molecular target: T1, SST2 (Homo sapiens, UniProt P30874); assay: Radioligand binding competition assay against [125I]SS-14, SST2; set-up: expressed in transfected cells; host or cells: CHO-K1 (membrane extracts); conditions: CHO-K1 membrane extracts
Protocol: (§2) Reference values thus obtained were compared to historical values obtained from the same receptor and used to validate the experimental session. […] For replicate determinations, the maximum variability tolerated in the test was ±20% around the average of replicates.
(§3) For the SST2 assay, membrane extracts from CHO-K1 cells (accession number NP_001041.1) were used. For the SST5 assay, membrane extracts from CHO-K1 cells (accession number NP_001044.1) were used.
(§4) Nonspecific binding was determined by co-incubation with 200-fold excess of the cold competitor […]. The samples were incubated at a final volume of 0.1 mL at a temperature and for a duration optimized for each receptor and then filtered over filter plates. Filters were washed six times with 0.5 mL of ice-cold washing buffer (optimized for each receptor) and 50 μL of Microscint™ 20 (Packard) were added in each well. The plates were incubated 15 minutes on an orbital shaker and then counted with a TopCount™ for 1 min/well.

SST5 = molecular target: T2, SST5 (Homo sapiens, UniProt P35346); assay: Radioligand binding competition assay against [125I]SS-14, SST5; conditions: CHO-K1 membrane extracts
T2 construct: expressed in transfected cells; host or cells: CHO-K1 (membrane extracts)
Protocol: as §2, §3, §4

NT-3 cells [3] = assay: Inhibition of proliferation of NT-3 cells (WST-1 assay); format: cell-based, human; conditions: 5 nM, 5 days, in comparison to untreated NT-3 cells
Source text: The water-soluble tetrazolium-1 (WST-1) assay is a standard method for assessing cell viability and proliferation in vitro. The WST-1 assay method is based on the cleavage of tetrazolium salts in culture medium to the dye, formazan, by active mitochondrial enzymes. As viable cell numbers change, so too does the action of mitochondrial dehydrogenases and cleavage of tetrazolium salts. The formation of formazan in the cell medium can be assayed spectrophotometrically as a measure of the number of living cells in the sample well. The effect of various compounds on the cell viability or proliferation rates can be measured as compared with controls or Standards.
All compounds were studied at a dose of 5 nM, and appropriate untreated controls were included.
NT-3 cells were seeded in complete RPMI-1640 medium (100 μl) into a 96-well microplate (20.000 cells/well). This was incubated at 37° C. in 5% CO2 to allow cells to adhere. Cells were treated with the test compounds at a concentration of 5 nM for a period of 5 days without changing the medium and without adding fresh compounds. […] The absorbance of the formazan dye was measured at 450 nm and 690 nm using a microplate reader. […] Average absorbance values were calculated for each group at 450 and 690 nm wavelengths and corrected for blank values. […]

SST2 [4] = molecular target: T1, SST2; assay: cAMP HTRF assay; format: cell-based; set-up: expressed in transfected cells; host or cells: CHO-K1; conditions: CHO-K1 cells expressing SST2, forskolin, 30 min
Protocol: as §2
CHO-K1 cells (accession number NP_001041.1) expressing human recombinant receptor SST2 were grown prior to the test in media without antibiotic and were detached by gentle flushing with PBS-EDTA (5 mM EDTA).
In a 96-well plate, 12 μl of cells were mixed with 6 μl of the test compound at increasing concentrations and 6 μl of forskolin, then incubated for 30 min at room temperature. The final concentrations of test compound were 0.003 nM; 0.01 nM; 0.03 nM; 0.1 nM; 0.3 nM; 1 nM; 3 nM; 10 nM; 30 nM; and 100 nM. After addition of lysis buffer containing cAMP-d2 and anti-cAMP cryptate detection reagents, the plates were incubated for one hour at room temperature, and fluorescence ratios were measured using an HTRF kit according to the manufacturer specification. The results are shown below in Table 1 and in FIGS. 1A-1D.

GH3 cells = assay: Inhibition of GH release from GH3 cells (ELISA); format: cell-based, rat; conditions: 72 hours, in comparison to untreated GH3 cells
Protocol: as §1
GH levels in the supernatant were quantified using a Sandwich ELISA assay (Millipore Rat/Mouse Growth Hormone ELISA kit #EZRMGH-45K) according to the manufacturer's instructions. This method involved the initial capture of supernatant rat GH to the wells of a microtiter plate coated by a pre-titered amount of anti-Growth Hormone polyclonal antibodies. Unbound GH was washed away and then a second biotinylated anti-GH polyclonal antibody was bound to the captured GH molecules. Unbound GH was again washed away and there followed a step of conjugation of horseradish peroxidase to the immobilized biotinylated antibodies. After a final wash step, immobilized antibody-enzyme conjugates were quantified using horseradish peroxidase activities in the presence of the substrate 3,3′,5,5′-tetramethylbenzidine. The enzyme activity was measured spectrophotometrically. Concentrations of rat GH were derived by interpolation from a reference curve generated in the same assay with reference standards of known concentrations of rat GH.

T1 sequence (P30874 whole entry): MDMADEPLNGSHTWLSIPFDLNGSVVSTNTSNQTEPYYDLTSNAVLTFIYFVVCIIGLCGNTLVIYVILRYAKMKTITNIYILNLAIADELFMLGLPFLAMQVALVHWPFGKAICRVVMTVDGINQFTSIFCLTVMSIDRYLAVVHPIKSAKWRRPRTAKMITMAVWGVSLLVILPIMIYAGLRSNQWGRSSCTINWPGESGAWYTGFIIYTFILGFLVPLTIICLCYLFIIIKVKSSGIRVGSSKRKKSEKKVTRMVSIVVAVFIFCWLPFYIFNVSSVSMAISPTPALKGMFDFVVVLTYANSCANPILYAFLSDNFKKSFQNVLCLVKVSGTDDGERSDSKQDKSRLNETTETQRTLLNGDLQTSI
T2 sequence (P35346 whole entry): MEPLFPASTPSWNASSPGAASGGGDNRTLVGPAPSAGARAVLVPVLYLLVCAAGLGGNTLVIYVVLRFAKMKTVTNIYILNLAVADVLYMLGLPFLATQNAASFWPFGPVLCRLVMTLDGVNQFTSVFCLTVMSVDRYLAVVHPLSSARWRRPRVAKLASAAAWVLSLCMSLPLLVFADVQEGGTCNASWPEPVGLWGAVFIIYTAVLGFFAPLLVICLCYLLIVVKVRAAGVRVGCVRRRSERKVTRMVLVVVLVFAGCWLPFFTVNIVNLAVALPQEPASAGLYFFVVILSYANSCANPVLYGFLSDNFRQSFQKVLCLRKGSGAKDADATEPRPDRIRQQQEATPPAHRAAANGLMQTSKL

Compound	Fold Change in Measured Insulin (NT-3 cells [1]; 5 nM)	Fold Change in Measured Insulin (NT-3 cells [1]; 10 nM)	Fold Change in Measured ACTH (AtT-20 cells; 5 nM)	Fold Change in Measured ACTH (AtT-20 cells; 10 nM)	IC50 (SST2 [2]; Table 4, third assay (Day 3)) [nM]	IC50 (SST5; Table 7, third assay (Day 3)) [nM]	Fold Change in Proliferation (NT-3 cells [3])	EC50 (SST2 [4]) [nM]	Fold Change in Measured GH (GH3 cells; 5 nM)	Fold Change in Measured GH (GH3 cells; 10 nM)	IC50 (SST2 [2]; Table 2, first assay (Day 1)) [nM]	IC50 (SST2 [2]; Table 3, second assay (Day 2)) [nM]	IC50 (SST5; Table 6, second assay (Day 2)) [nM]
CC(C)[C@@H]1NC(=O)[C@H](CCCCN)NC(=O)[C@@H](Cc2c[nH]c3ccccc23)NC(=O)[C@H](Cc2ccc(O)c(Br)c2)NC(=O)[C@@H](NC(=O)[C@H](N)Cc2ccc(N)c(Br)c2)CSSC[C@@H](C(=O)N[C@H](C(N)=O)[C@@H](C)O)NC1=O [Compound 5, (4-amino-3-Br)-D-Phe-c[Cys-(3-Br)-Tyr-D-Trp-Lys-Val-Cys]-Thr-NH2] (H-[X2]C[Tyr(3-Br)][dW]KVCT-NH2; disulfide 2-7)	0.12	0.18	0.68	0.77	0.54	0.79	0.52	0.16	0.72	0.75			
CC(C)[C@@H]1NC(=O)[C@H](CCCCN)NC(=O)[C@@H](Cc2c[nH]c3ccccc23)NC(=O)[C@H](Cc2ccc(O)c(Cl)c2)NC(=O)[C@H](NC(=O)[C@H](N)Cc2ccc(N)c(I)c2)CSSC[C@H](C(=O)N[C@H](C(N)=O)C(C)O)NC1=O (single isomer, unassigned) [Compound 2, (4-amino-3-Cl)-D-Phe-c[Cys-(3-I)-Tyr-D-Trp-Lys-Val-Cys]-Thr-NH2]											0.74		
CC(C)[C@@H]1NC(=O)[C@H](CCCCN)NC(=O)[C@@H](Cc2c[nH]c3ccccc23)NC(=O)[C@H](Cc2ccc(O)c(Cl)c2)NC(=O)[C@H](NC(=O)[C@H](N)Cc2ccc(N)c(I)c2)CSSC[C@H](C(=O)N[C@H](C(N)=O)C(C)O)NC1=O (single isomer, unassigned) [Compound 1, (4-amino-3-I)-D-Phe-c[Cys-(3-Cl)-Tyr-D-Trp-Lys-Val-Cys]-Thr-NH2]											0.37		
CC(C)[C@@H]1NC(=O)[C@H](CCCCN)NC(=O)[C@@H](Cc2c[nH]c3ccccc23)NC(=O)[C@H](Cc2ccc(O)c(F)c2)NC(=O)[C@H](NC(=O)[C@H](N)Cc2ccc(N)c(F)c2)CSSC[C@H](C(=O)N[C@H](C(N)=O)C(C)O)NC1=O (stereo partly drawn) [Compound 4, (4-amino-3-F)-D-Phe-c[Cys-(3-F)-Tyr-D-Trp-Lys-Val-Cys]-Thr-NH2] (H-[X1][dC][Tyr(3-F)][dW]KV[dC][Thr(3ξ)]-NH2; disulfide 2-7)	0.09	0.10	0.37	0.37	2.6	3.41	0.93	1.91	0.94	0.76			
CC(C)[C@@H]1NC(=O)[C@H](CCCCN)NC(=O)[C@@H](Cc2c[nH]c3ccccc23)NC(=O)[C@H](Cc2ccc(O)c(Cl)c2)NC(=O)[C@H](NC(=O)[C@H](N)Cc2ccc(N)c(Cl)c2)CSSC[C@H](C(=O)N[C@H](C(N)=O)C(C)O)NC1=O (stereo partly drawn) [Compound 3, (4-amino-3-Cl)-D-Phe-c[Cys-(3-Cl)-Tyr-D-Trp-Lys-Val-Cys]-Thr-NH2] (H-[X3][dC][Tyr(3-Cl)][dW]KV[dC][Thr(3ξ)]-NH2; disulfide 2-7)	0.62	0.56	0.68	0.76				0.25	1.04	1.02		0.48	0.86
